From patent publication US10065948B2, “Histone deacetylase inhibitors and compositions and methods of use thereof” (CHDI Foundation, Inc., priority 2014, dated 2018)

Legend:
[1] = molecular target: Histone Deacetylase 4 (HDAC4) catalytic domain (Homo sapiens (Human), UniProt P56524); experiment: Biochemical HDAC inhibition assay, fluorogenic substrate Boc-Lys(Tfa)-AMC
Protocol: The potency of compounds is quantified by measuring the Histone Deacetylase 4 (HDAC4) catalytic domain enzymatic activity using the fluorogenic substrate, Boc-Lys(Tfa)-AMC. The substrate is deacetylated to Boc-Lys-AMC by HDAC4. Cleavage by trypsin results in the release of the fluorophore AMC from the deacetylated substrate. The fluorescence of the sample is directly related to the histone deacetylase activity in the sample.
Stocks of 60 μL aliquots of the 10 mM compound in DMSO are prepared and stored at −20° C. From one stock aliquot of each compound to be tested and the reference compound, a 16-point serial dilution is prepared according to Table 1 using a 125 μL 16-channel Matrix multi-channel pipette (Matrix Technologies Ltd).
2 μL (200×) of each diluted solution and each control (full activity: 100% DMSO alone or full inhibition 1 mM) is stamped into V-bottomed polypropylene 384-well compound plates using either the Bravo (384-well head from Agilent) or 12.5 μL 16-channel Matrix multi-channel pipette (Matrix Technologies Ltd). Each well with the 200× compound solution is diluted 1:20 by the addition of 38 μL assay buffer+DMSO (10.5% DMSO, 45 mM Tris-HCl, 123 mM NaCl, 2.4 mM KCl, and 0.9 mM MgCl2 at pH 8.0 and equilibrated to room temperature).
The HDAC4 catalytic domain enzyme is human catalytic domain HDAC4 protein (amino acids 648-1032) with a C-terminal 6× histidine tag, produced by BioFocus. A working solution of enzyme is prepared from a 500 μg/mL stock aliquot of HDAC4 catalytic domain (thawed on ice) diluted to 0.2 μg/mL with assay buffer (50 mM Tris-HCl, 137 mM NaCl, 2.7 mM KCl, and 1 mM MgCl2 at pH 8 and equilibrated to room temperature) just prior to the addition of the enzyme to the assay.
5× (50 μM) substrate is prepared just prior to the addition to the assay. A 1 mM substrate stock is made by diluting a 100 mM Boc-Lys(Tfa)-AMC in DMSO solution 1:100 by adding it drop-wise to assay buffer (equilibrated to room temperature) while vortexing at slow speed to prevent precipitation. The 5× substrate is prepared by diluting the 1 mM substrate solution 1:20 by adding it drop-wise to assay buffer (equilibrated to room temperature) while vortexing at slow speed to prevent precipitation.
3× (30 μM) Developer/Stop Solution is prepared just prior to addition to the plate by diluting a stock solution of 10 mM reference compound 1:333 in 25 mg/mL trypsin (PAA Laboratories Ltd.) equilibrated to room temperature.
5 μL of each solution of 1:20 diluted compound from above is transferred to a clear bottomed, black, 384-well assay plate using the Bravo or the Janus (384-well MDT head from Perkin Elmer). Using a 16-channel Matrix multi-channel pipette, 35 μL of the working solution of HDAC4 catalytic domain enzyme (0.2 μg/mL in assay buffer) is transferred to the assay plate. […] The assay plate is then shaken for two minutes on an orbital shaker at 900 rpm (rotations per minute). Next the plate is incubated for 15 minutes at 37° C. The reaction is stopped by adding 25 μL of 3× (30 μM) developer/stop solution to the assay plates using either the Bravo, Janus or a 16-channel Matrix multi-channel pipette. Assay plates are then shaken for 5 minutes on an orbital shaker at 1200 rpm. Next, the assay plates are incubated at 37° C. for 1 hour in a tissue culture incubator. Finally, the fluorescence is measured (Excitation: 355 nm, Emission: 460 nm) using PerkinElmer EnVision in top read mode.

[2] = system: cellular histone deacetylase enzymatic activity in Jurkat E6-1 cells; experiment: Inhibition of cellular HDAC activity, Boc-Lys(Tfa)-AMC substrate (Cell Lys-TFA); assay type: cell-based
Protocol: The potency of the compounds is quantified by measuring the cellular histone deacetylase enzymatic activity using the fluorogenic substrate, Boc-Lys(Tfa)-AMC. After penetration in Jurkat E6-1 cells, the substrate is deacetylated to Boc-Lys-AMC. After cell lysis and cleavage by trypsin, the fluorophore AMC is released from the deacetylated substrate only. The fluorescence of the sample is directly related to the histone deacetylase activity in the sample.
Jurkat E6.1 cells are cultured according to standard cell culture protocols in Jurkat E6.1 Growth Media (RPMI without phenol red, 10% FBS, 10 mM HEPES, and 1 mM Sodium Pyruvate). Jurkat E6.1 cells are counted using a Coulter Counter and resuspended in Jurkat E6.1 growth media at a concentration of 75,000 cells/35 μL. 35 μL or 75,000 cells is seeded into Greiner microtitre assay plates. The plates are then incubated at 37° C. and 5% CO2 while other assay components are being prepared.
Stocks of 70 μL aliquots of the 10 mM compound in DMSO are prepared and stored at −20° C. From one stock aliquot of each compound to be tested and the reference compound, a 16-point serial dilution is prepared according to Table 1 using a 125 μL 16-channel Matrix multi-channel pipette.
2 μL (200×) of each diluted solution and each control (full activity: 100% DMSO alone or full inhibition 1 mM) is stamped into V-bottom polypropylene 384-well compound plates using either the Bravo, Janus, or 12.5 μL 16-channel Matrix multi-channel pipette. Each well with the 200× compound solution is diluted 1:20 by the addition of 38 μL Jurkat assay buffer+DMSO (9.5% DMSO, RPMI without phenol red, 0.09% FBS, 9 mM Hepes, and 0.9 mM Sodium Pyruvate equilibrated to room temperature)
5× (500 μM) substrate is prepared just prior to the addition to the assay. The 5× substrate is prepared by diluting a 100 mM Boc-Lys(Tfa)-AMC in DMSO solution 1:200 by adding it drop-wise to Jurkat assay medium (RPMI without phenol red, 0.1% FBS, 10 mM Hepes, and 1 mM Sodium Pyruvate equilibrated to 37° C.) while vortexing at slow speed to prevent precipitation.
10 mL of 3× lysis buffer is prepared with 8.8 ml of 3× stock lysis buffer (50 mM Tris-HCl, pH 8.0, 137 mM NaCl, 2.7 mM KCl, 1 mM MgCl2, 1% Nonidet P40 Substitute equilibrated to room temperature) and 1.2 mL of 3 mg/mL Trypsin equilibrated to room temperature.
5 μL of each solution of 1:20 diluted compound from above is transferred to the Greiner microtitre assay plates with 75,000 cells/well using the Bravo. Cells are then incubated for 2 hours at 37° C. and 5% CO2. […] The cells are then incubated for 3 hours at 37° C. and 5% CO2. Next, 25 μL of 3× lysis buffer is added to each well using either the 125 μL 16 channel pipette or the Bravo. The assay plate is then incubated overnight (15-16 hours) at 37° C. and 5% CO2. The following day, the plates are shaken on an orbital shaker for 1 minute at 900 rpm. Finally the top read fluorescence (Excitation: 355 nm, Emission: 460 nm) is measured using PerkinElmer EnVision.

[3] = system: cellular histone deacetylase activity (Lys-Ac); experiment: Inhibition of cellular HDAC activity (Cell Lys-Ac); assay type: cell-based; settings: Lys-Ac substrate
[4] = Homo sapiens, Jurkat E6.1, Lys-TFA substrate

Histone Deacetylase 4 (HDAC4) catalytic domain, sequence (P56524 648-1032): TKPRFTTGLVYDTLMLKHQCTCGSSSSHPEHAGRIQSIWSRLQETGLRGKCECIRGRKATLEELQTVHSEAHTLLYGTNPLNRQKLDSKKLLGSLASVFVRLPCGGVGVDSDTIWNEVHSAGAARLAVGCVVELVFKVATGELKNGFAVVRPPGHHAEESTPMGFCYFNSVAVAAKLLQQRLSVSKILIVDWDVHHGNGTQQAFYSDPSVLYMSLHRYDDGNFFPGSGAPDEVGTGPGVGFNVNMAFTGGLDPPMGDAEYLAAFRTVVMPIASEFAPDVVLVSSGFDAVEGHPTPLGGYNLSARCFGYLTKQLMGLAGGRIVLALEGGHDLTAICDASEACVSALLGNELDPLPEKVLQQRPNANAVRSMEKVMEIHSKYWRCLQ

Compound	IC50 [1] [nM]	IC50 [2, 4] [nM]	IC50 [3] [nM]	IC50 ([2]; Lys-TFA substrate) [nM]
Cc1ccc(-n2ncc3c2C[C@](C(=O)NO)(c2cccc(F)c2C)C3)cc1 [Example 9, (S)-5-(3-Fluoro-2-methylphenyl)-N-hydroxy-1-(p-tolyl)-1,4,5,6-tetrahydrocyclopenta[c]pyrazole-5-carboxamide]	39	82	> 50000	–
Cc1c(F)cccc1C1(C(=O)NO)Cc2nc(-c3ccccc3F)sc2C1 (single isomer, unassigned) [Example 62, E2-(abs)-5-(3-fluoro-2-methylphenyl)-2-(2-fluorophenyl)-N-hydroxy-5,6-dihydro-4H-cyclopenta[d]thiazole-5-carboxamide]	193	–	> 50000	49
Cc1c(F)cccc1[C@]1(C(=O)NO)Cc2nn(C)c(-c3ccc(F)cc3)c2C1 [Example 79, (R)-5-(3-Fluoro-2-methylphenyl)-3-(4-fluorophenyl)-N-hydroxy-2-methyl-2,4,5,6-tetrahydrocyclopenta[c]pyrazole-5-carboxamide]	53	26	36500	–
Cc1c(F)cccc1[C@@]1(C(=O)NO)CCc2nc(C3CC3)ncc21 (single isomer, unassigned) [Example 57]	–	> 50000	> 50000	–
O=C(NO)[C@]1(c2ccccc2)CCc2ccccc21 [Example 87, E1-(abs)-N-Hydroxy-1-phenyl-2,3-dihydro-1H-indene-1-carboxamide]	–	45700	> 50000	–

Now from value to compound:

IC50 [1] [nM]	IC50 [2, 4] [nM]	IC50 [3] [nM]	IC50 ([2]; Lys-TFA substrate) [nM]	Compound
1000	1700	> 50000	–	Cc1c(F)cccc1[C@@]1(C(=O)NO)Cc2cnn(-c3ccccc3)c2C1 [Example 30, (R)-5-(3-Fluoro-2-methylphenyl)-N-hydroxy-1-phenyl-1,4,5,6-tetrahydrocyclopenta[c]pyrazole-5-carboxamide]
31	69	> 50000	–	Cc1c(F)cccc1[C@]1(C(=O)NO)Cc2cnn(-c3ccc(F)cn3)c2C1 [Example 16, (S)-5-(3-Fluoro-2-methylphenyl)-1-(5-fluoropyridin-2-yl)-N-hydroxy-1,4,5,6-tetrahydrocyclopenta[c]pyrazole-5-carboxamide]
480	–	> 50000	120	Cc1c(F)cccc1C1(C(=O)NO)Cc2nc(-c3ccccc3F)sc2C1 (single isomer, unassigned) [Example 61, E1-(abs)-5-(3-Fluoro-2-methylphenyl)-2-(2-fluorophenyl)-N-hydroxy-5,6-dihydro-4H-cyclopenta[d]thiazole-5-carboxamide]
109	250	> 50000	–	Cc1c(F)cccc1[C@]1(C(=O)NO)Cc2cnn(-c3ccc(OC(F)F)cc3)c2C1 [Example 20, (S)-1-(4-(Difluoromethoxy)phenyl)-5-(3-fluoro-2-methylphenyl)-N-hydroxy-1,4,5,6-tetrahydrocyclopenta[c]pyrazole-5-carboxamide]
8200	46700	> 50000	–	O=C(NO)C1(c2ccccc2)CCc2cn(CC(F)(F)F)nc2CC1 (stereo not drawn) [Example 86, N-Hydroxy-6-phenyl-2-(2,2,2-trifluoroethyl)-2,4,5,6,7,8-hexahydrocyclohepta[c]pyrazole-6-carboxamide]
4400	1800	> 50000	–	Cc1c(F)cccc1C1(C(=O)NO)CCc2nn(CC(F)(F)F)c(C3CC3)c2C1 (stereo not drawn) [Example 39, 3-Cyclopropyl-5-(3-fluoro-2-methylphenyl)-N-hydroxy-2-(2,2,2-trifluoroethyl)-4,5,6,7-tetrahydro-2H-indazole-5-carboxamide]
–	14	> 50000	–	Cc1ccccc1-n1ncc2c1C[C@](C(=O)NO)(c1cccc(F)c1C)C2 [Example 2, (S)-5-(3-Fluoro-2-methylphenyl)-N-hydroxy-1-(o-tolyl)-1,4,5,6-tetrahydrocyclopenta[c]pyrazole-5-carboxamide]
